Earlier results, collected in US20220000833A1, “COMPOSITIONS AND METHODS FOR TREATING O[…] APNEA” (THERAPIX BIOSCIENCES LTD., priority 2018, published 2022).

Tests used:
patients = details: more than 40 years of clinical research, around 6000 patients, 300-1200 mg a day up to two months

SMILES	hypothesized lethal dose in humans (humans; based on rat studies) [mg/kg]	dose at which serious Dronabinol-associated adverse events in humans have been reported (humans; humans) [mg/kg]	estimated lethal dose in humans (humans; intravenous) [mg/kg]	safety / side effects in clinical research (patients)
CCCCCc1cc(O)c2c(c1)OC(C)(C)[C@@H]1CCC(C)=C[C@@H]21 [Dronabinol, (−)-Trans-Δ9-tetrahydrocannabinol]	30	0.4	30	–
CCCCCCCCCCCCCCCC(=O)NCCO [PEA, N-(2-hydroxyethyl)hexadecanamide]	–	–	–	no side effects has ever been reported
